This note sets out measurements from US6376670B1, “Quinoline-indole antimicrobial agents, uses and compositions related thereto” (Sepracor Inc., priority 1997, dated 2002).

A value given as a limit tells only on which side of the number the result lay.

Type in all cases: cell-based
For assay [1], the system named is ciprofloxacin-resistant Staphylococcus aureus (CRSA). The assay is described as follows: Determination of MIC values (BHI broth, 96 well microtiter plate). Particulars: MRSA, cells marked [CRSA], overnight 37° C., read-out: MIC [CRSA] (printed in MRSA column). The procedure, abridged: (§1)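 Broth microdilution in BHI broth used final compound concentrations of 25 to 0.39 μg/mL, diluted from DMSO solutions. Inoculum was 10^5–10^6 cells/mL from cultures grown to a 0.5 McFarland standard. Plates were incubated overnight (~16 h) at 37 °C in about 7–10% CO2; MIC was the lowest concentration with no visible growth.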

The next assay relates to Streptococcus pneumoniae. The description is as above. The following applies: Streptococcus pneumoniae; S. pneu; BHI broth, overnight 37° C.; read-out: MIC S. pneu. The essentials: as §1
The test system of assay [2] is vancomycin-resistant Enterococcus spp. (VRE). The assay is described as above. The following applies: Enterococcus, VRE, VREF; BHI broth, overnight 37° C.; read-out: MIC VREF. The procedure, abridged: as §1
In another assay the test system is S. aureus 8325-4. Nature of the assay: Lytic response (culture turbidity 600 nm) in MH broth. The following applies: added at 5×, 10×, and 20×MIC to early log phase cultures. As for the experimental part: Activities of the quinoline-indoles and comparator agents were determined against MSSA (n=32), MRSA (n=31) and VISA (n=7). Susceptibility testing on MH agar was performed using an inoculum of 10^6 c.f.u. Bactericidal, lytic and PAEs were determined on S. aureus 8325-4 in MH broth. Samples were removed for viable numbers on MH agar (for bactericidal response) and culture turbidity (600 nm) (for lytic response). PAEs were determined by a broth dilution method following exposure of bacteria to drugs at 5×MIC for 60 min.
The effects of the quinoline-indoles, and ciprofloxacin and rifampin (controls) on the integrity of S. aureus 8325-4 were examined following addition at 5×, 10×, and 20×MIC to early log phase cultures.
The lysis experiments were performed using classical “time kill-curve” methodology. See V. Lorian, Antibiotics in Laboratory Medicine, 4th ed., Chapter 2; Williams & Wilkins, Baltimore, 1996 (ISBN 0-683-05169-5). Bacteria (e.g., S. aureus) are exposed in liquid culture (early log phase approx […]) to multiples (typically 2×, 5×, 10×, and 20×) of the single cell agar MIC. Drug-free controls are also included. […] The samples are diluted in fresh drug-free medium and aliquots from a range of dilutions spread onto drug-free agar plates and those giving 30-300 colony forming units/plate are counted for quantification of survivors versus time of drug exposure. […]

The test system of another assay is S. aureus (ATCC 25923). Nature of the assay: MIC against S. aureus strain. Particulars: Staphylococcus aureus, ATCC25923. The procedure: (§2) Stock solutions of compounds are prepared with a concentration of 10 mg/mL. These solutions are then diluted 1:4 to give a concentration of 2.5 mg/mL. The compounds are then serially diluted 1:2 for 6 iterations. The concentrations made for each compound are 2.5, 1.25, 0.625, 0.3125, 0.156, 0.078, and 0.039 mg/mL. A control sample (no compound) is run along with each compound tested. All dilutions are made in DMSO.
(§3) All wells of a 96 well microtiter plate are filled with 100 μL of BHI (Brain-Heart Infusion) broth. Columns on the plate are labeled 1-12, and rows are labeled A-H. Each column of wells is used to test one series of diluted compounds. Into each well of 100 μL of BHI broth, 1 μL of diluted compound is placed for a 1:100 dilution. This makes the final concentration of each drug series 25, 12.5, 6.25, 3.125, 1.56, 0.78, 0.39, and 0 μg/mL.
(§4) Test Organism: A sterile 15 mL screw cap tube is filled wth 3 mL of BHI broth. Next, 2-3 colonies of test organism are inoculated into the tube. The tube is then incubated at 37° C. in a CO2 (approx. 7%) atmosphere jar. The organisms are allowed to grow to the density of a 0.5 McFarland standard (10^8 cells/mL). The organism is then inoculated into each well of the microtiter plate containing the diluted compounds to be tested for MIC. The inoculum is 1 μL in volume and represents 10^5 to 10^6 cells/mL.
(§5) After inoculation the plates are covered and incubated at 37° C. and approx. 7-10% CO2 atmosphere overnight (about 16 hours). The plates are then observed for growth, the well with the lowest concentration of drug and no observable growth represents the well determining the MIC.

A further assay deals with S. aureus (ATCC 29213). The assay is described as follows: MIC against S. aureus strain. Particulars: Staphylococcus aureus, ATCC29213. The procedure: as §2, §3, §4, §5
The next assay deals with S. aureus (ATCC 33591). Nature of the assay: MIC against S. aureus strain. The following applies: Staphylococcus aureus, ATCC33591. As for the experimental part:
as §2, §3, §4, §5

For the next assay, the system named is S. aureus (ATCC 33592). The assay is described as follows: MIC against S. aureus strain. The following applies: Staphylococcus aureus, ATCC33592. As for the experimental part: as §2, §3, §4, §5
Assay [3] has as its system methicillin-resistant Staphylococcus aureus (MRSA). The assay is described as follows: Determination of MIC values (BHI broth, 96 well microtiter plate). The following applies: Staphylococcus aureus, MRSA; read-out: MIC MRSA. The essentials:
as §1

The next assay has as its system VISA-5827. The assay is described as follows: MIC against VISA strain. The following applies: Staphylococcus aureus. As for the experimental part: as §2, §3, §4, §5
The next assay concerns VISA-5836. The assay is described as follows: MIC against VISA strain. Particulars: Staphylococcus aureus. As for the experimental part:
as §2, §3, §4, §5

Regarding `NCc1ccc(CNC(=O)c2cc(-c3c[nH]c4ccc(Br)cc34)nc3ccccc23)cc1` [Example 284], the minimum inhibitory concentration (MIC) in assay [1] was under 7 µg/mL.

With `NCCNC(=O)c1cc(-c2c[nH]c3ccc(Br)cc23)nc2ccc(Cl)cc12` [Example 286], the MIC (in the assay on Streptococcus pneumoniae; in assay [1]; in assay [2]) was under 7 µg/mL in each case.

As for `NCCNC(=O)c1cc(-c2c[nH]c3ccc(Br)cc23)nc2cc(I)ccc12` [Example 296], the MIC (in the assay with Streptococcus pneumoniae; in [1]; in [2]) was under 7 µg/mL each time.

`NCCNC(=O)c1cc(-c2c[nH]c3ccc(Br)cc23)nc2c(I)cccc12` [Example 320]: the MIC (in the assay with Streptococcus pneumoniae; in assay [1]; in [2]) was under 7 µg/mL each time.

Consider `Cn1cc(-c2cc(C(=O)NCc3ccc(CN)cc3)c3ccc(F)cc3n2)c2cc(Br)ccc21` [Example 323], for which the MIC in the assay on Streptococcus pneumoniae is under 7 µg/mL; in assay [1], under 7 µg/mL; in assay [2] it was under 25 µg/mL.

`CCOC(=O)n1cc(-c2cc(C(=O)NCc3cccc(CN)c3)c3cc(I)ccc3n2)c2cc(Br)ccc21` [Example 324]: the minimum inhibitory concentration (MIC) (in the assay with Streptococcus pneumoniae; in [1]; in [2]) was over 25 µg/mL each time.

For `Cn1cc(-c2cc(C(=O)NCCN)c3ccc(I)cc3n2)c2cc(Br)ccc21` [Example 329], the MIC (in the assay on Streptococcus pneumoniae; in assay [1]; in assay [2]) was under 7 µg/mL in each case.

With `O=C(O)c1cn(C2CC2)c2cc(N3CCNCC3)c(F)cc2c1=O` [ciprofloxacin], the “bactericidal mechanism of action (lytic versus non-lytic)” value in the assay with S. aureus 8325-4 is given as “non-lytic”.

On to `NCc1ccc(CNC(=O)c2cc(-c3c[nH]c4ccc(Br)cc34)nc3ccc(C#CCN4CCCCC4)cc23)cc1` [compound 1], for which the minimal inhibitory concentration (MIC) with S. aureus (ATCC 25923), against S. aureus (ATCC 29213), in the assay on S. aureus (ATCC 33591) and in the assay on S. aureus (ATCC 33592) was under 7 µg/mL in each case.

Consider `NCc1ccc(CNC(=O)c2cc(-c3c[nH]c4ccc(Br)cc34)nc3ccccc23)cc1` [compound 1], for which the MIC (in assay [3]; in the assay with VISA-5827; in the assay with VISA-5836) was under 7 µg/mL in each case.

In the case of `COc1ccc(NC(=O)c2cc(-c3c[nH]c4ccc(Br)cc34)nc3ccc(C#CCN4CCCCC4)cc23)cc1` [compound 2], the MIC with S. aureus (ATCC 25923), against S. aureus (ATCC 29213), with S. aureus (ATCC 33591) and with S. aureus (ATCC 33592) was under 7 µg/mL in each case.

On to `NCc1ccc(CNC(=O)c2cc(-c3c[nH]c4ccc(Br)cc34)nc3ccc(C#CCN4CCCCC4)cc23)cc1` [compound 2], for which the MIC (in assay [3]; in the assay with VISA-5827; with VISA-5836) was under 7 µg/mL each time.

With `COC(=O)c1cc(-c2c[nH]c3ccc(Br)cc23)nc2cc(F)ccc12` [compound 3], the MIC in the assay on S. aureus (ATCC 25923), in the assay with S. aureus (ATCC 29213), in the assay with S. aureus (ATCC 33591) and in the assay with S. aureus (ATCC 33592) was under 7 µg/mL in each case.

Turning to `COc1ccc(NC(=O)c2cc(-c3c[nH]c4ccc(Br)cc34)nc3ccc(C#CCN4CCCCC4)cc23)cc1` [compound 3], the MIC (in [3]; in the assay with VISA-5827; in the assay with VISA-5836) was under 7 µg/mL throughout.

On to `COC(=O)c1cc(-c2c[nH]c3ccc(Br)cc23)nc2cc(F)ccc12` [compound 4], for which the MIC (in assay [3]; in the assay with VISA-5827; with VISA-5836) was under 7 µg/mL throughout.

In the case of `NCCNC(=O)c1cc(-c2c[nH]c3ccc(Br)cc23)nc2cc(Cl)c(C#CCN3CCCCC3)cc12` [compound 4], the MIC against S. aureus (ATCC 25923), in the assay on S. aureus (ATCC 29213), in the assay on S. aureus (ATCC 33591) and against S. aureus (ATCC 33592) was under 7 µg/mL in each case.

For `COc1ccc2nc(-c3c[nH]c4ccc(Cl)cc34)ccc2c1` [compound 5], the MIC against S. aureus (ATCC 25923), against S. aureus (ATCC 29213), with S. aureus (ATCC 33591) and in the assay with S. aureus (ATCC 33592) was under 7 µg/mL each time.

As to `NCCNC(=O)c1cc(-c2c[nH]c3ccc(Br)cc23)nc2cc(Cl)c(C#CCN3CCCCC3)cc12` [compound 5], the MIC (in assay [3]; in the assay with VISA-5827; against VISA-5836) was under 7 µg/mL each time.

Turning to `COc1ccc2nc(-c3c[nH]c4ccc(Cl)cc34)ccc2c1` [compound 6], the minimum inhibitory concentration (MIC) (in assay [3]; against VISA-5827; against VISA-5836) was under 7 µg/mL throughout.

Take `OCc1cc(-c2c[nH]c3ccc(Br)cc23)nc2cc(F)ccc12` [compound 6]: the MIC with S. aureus (ATCC 25923), against S. aureus (ATCC 29213), with S. aureus (ATCC 33591) and with S. aureus (ATCC 33592) was under 7 µg/mL in each case.

Turning to `NCc1cc(-c2c[nH]c3ccc(Br)cc23)nc2cc(Cl)ccc12` [compound 7], the MIC with S. aureus (ATCC 25923), against S. aureus (ATCC 29213), against S. aureus (ATCC 33591) and in the assay with S. aureus (ATCC 33592) was under 7 µg/mL in each case.

On to `OCc1cc(-c2c[nH]c3ccc(Br)cc23)nc2cc(F)ccc12` [compound 7], for which the MIC (in assay [3]; with VISA-5827; against VISA-5836) was under 7 µg/mL in each case.

Take `Brc1ccc2[nH]cc(-c3nc4ccc(C#CCN5CCCCC5)cc4c4c3CCO4)c2c1` [compound 8]: the MIC with S. aureus (ATCC 25923), in the assay on S. aureus (ATCC 29213), against S. aureus (ATCC 33591) and with S. aureus (ATCC 33592) was under 7 µg/mL throughout.

For `NCc1cc(-c2c[nH]c3ccc(Br)cc23)nc2cc(Cl)ccc12` [compound 8], the MIC (in assay [3]; against VISA-5827; in the assay with VISA-5836) was under 7 µg/mL throughout.

Consider `Brc1ccc2[nH]cc(-c3nc4ccc(C#CCN5CCCCC5)cc4c4c3CCO4)c2c1` [compound 9], for which the minimal inhibitory concentration (MIC) (in assay [3]; against VISA-5827; against VISA-5836) was under 7 µg/mL throughout.

With `CC(C)CNC(=O)c1cc(-c2c[nH]c3ccc(Br)cc23)nc2ccc(C#CCN3CCCCC3)cc12` [compound 9], the MIC with S. aureus (ATCC 25923) is under 25 µg/mL; in the assay with S. aureus (ATCC 29213) it was under 7 µg/mL; in the assay on S. aureus (ATCC 33591), under 7 µg/mL; in the assay with S. aureus (ATCC 33592) it was over 25 µg/mL.

Take `CN(CC[N+](C)(C)C)C(=O)c1cc(-c2c[nH]c3ccc(Br)cc23)nc2cc(Cl)ccc12` [compound 10]: the minimal inhibitory concentration (MIC) (in assay [3]; against S. aureus (ATCC 25923); against S. aureus (ATCC 29213); with S. aureus (ATCC 33591); in the assay on S. aureus (ATCC 33592); with VISA-5827) was under 7 µg/mL each time. Also, the minimum inhibitory concentration (MIC) against VISA-5836 is under 7 µg/mL.

The term MIC denotes the lowest concentration found to suppress growth.
